These results are taken from US9279813B2, “Ex vivo flow cytometry method and device” (Purdue Research Foundation, priority 2006, dated 2016).

The target of the test is T1, cell surface folate receptors on folate receptor positive M109 cells (Mus musculus, UniProt P35846).
T1 construct: cell surface folate receptors on folate receptor positive M109 cells in culture; endogenous in cells; host or cells: M109 cells
Kind of test: Fluorescence measurement of binding to cell surface folate receptors on M109 cells in culture. The format is cell-based. As to the method: TEXAS RED C2-maleimide (Molecular Probes, Eugene, Oreg.) was dissolved in dimethyl sulfoxide (DMSO) (1 mg in 200 μl DMSO). A 1.4 molar equivalent (1 mg) of Folate-Cys was added to the solution and mixed for 4 hours at room temperature. Folate-Cys-TEXAS RED (Folate-TEXAS RED) was purified by reverse-phase HPLC on a C18 column at a flow rate of 1 ml/min. The mobile phase, consisting of 10 mM NH4HCO3 buffer, pH 7.0 (eluent A) and acetonitrile (eluent B), was maintained at a 99:1 A:B ratio for the first five minutes and then changed to 70:30 A:B in a linear gradient over the next 30 minutes followed by a 1:99 A:B linear gradient over the last 15 minutes. Folate-Cys-TEXAS RED eluted as two isomer peaks at 44.5 and 45.8 minutes. The product was confirmed by mass spectroscopy and the biologic activity was confirmed by fluorescence measurement of its binding to cell surface folate receptors on folate receptor positive M109 cells in culture.
ALEXAFLUOR 488 C5-maleimide (Molecular Probes, Eugene, Oreg.) was dissolved in dimethyl sulfoxide (DMSO) (0.5 mg in 50 μl DMSO). A 1.5 molar equivalent (0.57 mg) of Folate-Cys was added to the solution and mixed for 4 hours at room temperature. […] The product was confirmed by mass spectroscopy and the biologic activity was confirmed by fluorescence measurement of its binding to cell surface folate receptors on folate receptor positive M109 cells in culture.

T1 sequence (P35846 25-232): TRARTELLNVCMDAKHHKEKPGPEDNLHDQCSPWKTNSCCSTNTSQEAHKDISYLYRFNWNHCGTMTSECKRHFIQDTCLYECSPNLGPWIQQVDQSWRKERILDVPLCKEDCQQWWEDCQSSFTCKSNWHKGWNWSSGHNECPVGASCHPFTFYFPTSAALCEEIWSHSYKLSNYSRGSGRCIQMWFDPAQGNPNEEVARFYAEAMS

Consider `N=c1ccc2c(-c3ccc(C(=O)NCCCCCN4C(=O)CC(SCC(NC(=O)CCC(NC(=O)c5ccc(NCc6cnc7nc(N)[nH]c(=O)c7n6)cc5)C(=O)O)C(=O)O)C4=O)cc3C(=O)O)c3ccc(N)c(S(=O)(=O)O)c3oc-2c1S(=O)(=O)O` (centres unmarked) [Folate-Cys-ALEXAFLUOR 488], for which the “biologic activity: binding to cell surface folate receptors” value is “confirmed”.
With `Nc1nc2ncc(CNc3ccc(C(=O)NC(CCC(=O)NC(CSC4CC(=O)N(CCNS(=O)(=O)c5ccc(C6=c7cc8c9c(c7Oc7c6cc6c%10c7CCCN%10CCC6)CCC[N+]=9CCC8)c(S(=O)(=O)O)c5)C4=O)C(=O)O)C(=O)O)cc3)nc2c(=O)[nH]1` (centres unmarked) [Folate-Cys-TEXAS RED], the “biologic activity: binding to cell surface folate receptors” value was “confirmed”.
